Source: ChEMBL document CHEMBL4808176, “Optimization of Truncated Glucagon Peptides to Achieve Selective, High Potency, Full Antagonists” (J Med Chem, 2021)
pIC50: −log10 of the molar value. Active and inactive are the calls of the source. No cut-off for these calls is given here. Peptide text beside a SMILES is read from it. * marks the point of attachment. Carboxymethyl = O=C(O)C*; CH2CH2COOH = O=C(O)CC*

Legend:
Glucagon receptor [1] = molecular target: T1, Glucagon receptor (Homo sapiens, UniProt P47871); test: Partial antagonist activity at human GCGR expressed in HEK293 cells assessed as inhibition of glucogon-induced cAMP production; type: functional, cell-based; settings: filed as antagonist
T1 sequence (P47871 whole entry): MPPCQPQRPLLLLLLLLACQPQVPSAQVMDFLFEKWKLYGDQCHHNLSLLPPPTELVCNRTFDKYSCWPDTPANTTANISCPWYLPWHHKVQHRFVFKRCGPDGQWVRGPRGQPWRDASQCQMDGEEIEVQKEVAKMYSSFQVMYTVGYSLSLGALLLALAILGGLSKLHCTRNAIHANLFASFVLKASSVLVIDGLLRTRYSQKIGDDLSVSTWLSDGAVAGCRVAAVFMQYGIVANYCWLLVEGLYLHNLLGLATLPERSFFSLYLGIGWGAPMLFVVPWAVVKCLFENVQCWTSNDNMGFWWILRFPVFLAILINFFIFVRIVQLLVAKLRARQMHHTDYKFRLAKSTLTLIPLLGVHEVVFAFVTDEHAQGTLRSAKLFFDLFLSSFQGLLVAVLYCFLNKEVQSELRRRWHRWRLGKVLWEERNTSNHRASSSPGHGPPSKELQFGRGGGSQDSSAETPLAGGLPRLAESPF

Glucagon receptor [2] = molecular target: T1, Glucagon receptor; test: Antagonist activity at human GCGR expressed in HEK293 cells assessed as inhibition of glucogon-induced cAMP production; type: functional, cell-based
Glucagon receptor [3] = molecular target: T1, Glucagon receptor; test: Displacement of 125I-glucagon from human GCGR expressed in HEK293 cells membranes incubated for 6 hrs by liquid scintillation counting method; type: cell membranes, Membrane

Activity (Glucagon receptor [1]) | pIC50 (Glucagon receptor [2]) | pIC50 (Glucagon receptor [3]) | Molecule
Active |  |  | CSCC[C@H](NC(=O)[C@H](CC(C)C)NC(=O)[C@H](Cc1c[nH]c2ccccc12)NC(=O)[C@H](CCC(N)=O)NC(=O)[C@@H](NC(=O)[C@H](Cc1ccccc1)NC(=O)[C@H](CC(=O)O)NC(=O)[C@H](CCC(N)=O)NC(=O)[C@H](C)NC(=O)[C@H](CCCNC(=N)N)NC(=O)[C@H](CCCNC(=N)N)NC(=O)[C@H](CO)NC(=O)[C@H](CC(=O)O)NC(=O)[C@H](CC(C)C)NC(=O)[C@H](Cc1ccc(O)cc1)NC(=O)[C@H](CCCCN)NC(=O)[C@H](CO)NC(=O)[C@H](Cc1ccc(O)cc1)NC(=O)[C@H](CCCC(=O)O)NC(=O)[C@H](CO)NC(=O)[C@@H](NC(=O)[C@H](Cc1ccccc1)NC(=O)[C@@H](NC(=O)CNC(=O)[C@H](CCC(N)=O)NC(=O)[C@@H](N)CO)[C@@H](C)O)[C@@H](C)O)C(C)C)C(=O)N[C@@H](CC(N)=O)C(=O)N[C@H](C(N)=O)[C@@H](C)O
 | 7.09 |  | CSCC[C@H](NC(=O)[C@H](CC(C)C)NC(=O)[C@H](Cc1c[nH]c2ccccc12)NC(=O)[C@H](CCC(N)=O)NC(=O)[C@@H](NC(=O)[C@H](Cc1ccccc1)NC(=O)[C@H](CC(=O)O)NC(=O)[C@H](CCC(N)=O)NC(=O)[C@H](C)NC(=O)[C@H](CCCNC(=N)N)NC(=O)[C@H](CCCNC(=N)N)NC(=O)[C@H](CO)NC(=O)[C@H](CC(=O)O)NC(=O)[C@H](CC(C)C)NC(=O)[C@H](Cc1ccc(O)cc1)NC(=O)[C@H](CCCCN)NC(=O)[C@H](CO)NC(=O)[C@H](Cc1ccc(O)cc1)NC(=O)[C@H](CSCCC(=O)O)NC(=O)[C@H](CO)NC(=O)[C@@H](NC(=O)[C@@H](N)Cc1ccccc1)[C@@H](C)O)C(C)C)C(=O)N[C@@H](CC(N)=O)C(=O)N[C@H](C(N)=O)[C@@H](C)O (H-FTSC(CH2CH2COOH)YSKYLDSRRAQDFVQWLMNT-NH2)
 | 7.15 |  | CSCC[C@H](NC(=O)[C@H](CC(C)C)NC(=O)[C@H](Cc1c[nH]c2ccccc12)NC(=O)[C@H](CCC(N)=O)NC(=O)[C@@H](NC(=O)[C@H](Cc1ccccc1)NC(=O)[C@H](CC(=O)O)NC(=O)[C@H](CCC(N)=O)NC(=O)[C@H](C)NC(=O)[C@H](CCCNC(=N)N)NC(=O)[C@H](CCCNC(=N)N)NC(=O)[C@H](CO)NC(=O)[C@H](CC(=O)O)NC(=O)[C@H](CC(C)C)NC(=O)[C@H](Cc1ccc(O)cc1)NC(=O)[C@H](CCCCN)NC(=O)[C@H](CO)NC(=O)[C@H](Cc1ccc(O)cc1)NC(=O)[C@H](CSCC(=O)O)NC(=O)[C@H](CO)NC(=O)[C@@H](NC(=O)[C@@H](N)Cc1ccccc1)[C@@H](C)O)C(C)C)C(=O)N[C@@H](CC(N)=O)C(=O)N[C@H](C(N)=O)[C@@H](C)O (H-FTSC(Carboxymethyl)YSKYLDSRRAQDFVQWLMNT-NH2)
Active |  |  | CSCC[C@H](NC(=O)[C@H](CC(C)C)NC(=O)[C@H](Cc1c[nH]c2ccccc12)NC(=O)[C@H](CCC(N)=O)NC(=O)[C@@H](NC(=O)[C@H](Cc1ccccc1)NC(=O)[C@H](CC(=O)O)NC(=O)[C@H](CCC(N)=O)NC(=O)[C@H](C)NC(=O)[C@H](CCCNC(=N)N)NC(=O)[C@H](CCCNC(=N)N)NC(=O)[C@H](CO)NC(=O)[C@H](CC(=O)O)NC(=O)[C@H](CC(C)C)NC(=O)[C@H](Cc1ccc(O)cc1)NC(=O)[C@H](CCCCN)NC(=O)[C@H](CO)NC(=O)[C@H](Cc1ccc(O)cc1)NC(=O)[C@H](CSCC(=O)O)NC(=O)[C@H](CO)NC(=O)[C@@H](NC(=O)[C@H](Cc1ccccc1)NC(=O)[C@@H](NC(=O)CNC(=O)[C@H](CCC(N)=O)NC(=O)[C@@H](N)CO)[C@@H](C)O)[C@@H](C)O)C(C)C)C(=O)N[C@@H](CC(N)=O)C(=O)N[C@H](C(N)=O)[C@@H](C)O
Active |  |  | CSCC[C@H](NC(=O)[C@H](CC(C)C)NC(=O)[C@H](Cc1c[nH]c2ccccc12)NC(=O)[C@H](CCC(N)=O)NC(=O)[C@@H](NC(=O)[C@H](Cc1ccccc1)NC(=O)[C@H](CC(=O)O)NC(=O)[C@H](CCC(N)=O)NC(=O)[C@H](C)NC(=O)[C@H](CCCNC(=N)N)NC(=O)[C@H](CCCNC(=N)N)NC(=O)[C@H](CO)NC(=O)[C@H](CC(=O)O)NC(=O)[C@H](CC(C)C)NC(=O)[C@H](Cc1ccc(O)cc1)NC(=O)[C@H](CCCCN)NC(=O)[C@H](CO)NC(=O)[C@H](Cc1ccc(O)cc1)NC(=O)[C@H](CSCCC(=O)O)NC(=O)[C@H](CO)NC(=O)[C@@H](NC(=O)[C@H](Cc1ccccc1)NC(=O)[C@@H](NC(=O)CNC(=O)[C@H](CCC(N)=O)NC(=O)[C@@H](N)CO)[C@@H](C)O)[C@@H](C)O)C(C)C)C(=O)N[C@@H](CC(N)=O)C(=O)N[C@H](C(N)=O)[C@@H](C)O
 | 7.36 | 7.02 | CSCC[C@H](NC(=O)[C@H](CC(C)C)NC(=O)[C@H](Cc1c[nH]c2ccccc12)NC(=O)[C@H](CCC(N)=O)NC(=O)[C@@H](NC(=O)[C@H](Cc1ccccc1)NC(=O)[C@H](CC(=O)O)NC(=O)[C@H](CCC(N)=O)NC(=O)[C@H](C)NC(=O)[C@H](CCCNC(=N)N)NC(=O)[C@H](CCCNC(=N)N)NC(=O)[C@H](CO)NC(=O)[C@H](CC(=O)O)NC(=O)[C@H](CC(C)C)NC(=O)[C@H](Cc1ccc(O)cc1)NC(=O)[C@H](CCCCN)NC(=O)[C@H](CO)NC(=O)[C@H](Cc1ccc(O)cc1)NC(=O)[C@H](CCC(=O)O)NC(=O)[C@H](CO)NC(=O)[C@@H](NC(=O)[C@@H](N)Cc1ccc2ccccc2c1)[C@@H](C)O)C(C)C)C(=O)N[C@@H](CC(N)=O)C(=O)N[C@H](C(N)=O)[C@@H](C)O (HELM PEPTIDE1{[N[C@@H](Cc1ccc2ccccc2c1)C(=O)[*:2]].T.S.E.Y.S.K.Y.L.D.S.R.R.A.Q.D.F.V.Q.W.L.M.N.T.[am]}$$$$V2.0)
 | 6.89 | 7.43 | Ac-FTSEYSKYLDSRRAQDFVQWLMNT-NH2
Active |  |  | CSCC[C@H](NC(=O)[C@H](CC(C)C)NC(=O)[C@H](Cc1c[nH]c2ccccc12)NC(=O)[C@H](CCC(N)=O)NC(=O)[C@@H](NC(=O)[C@H](Cc1ccccc1)NC(=O)[C@H](CC(=O)O)NC(=O)[C@H](CCC(N)=O)NC(=O)[C@H](C)NC(=O)[C@H](CCCNC(=N)N)NC(=O)[C@H](CCCNC(=N)N)NC(=O)[C@H](CO)NC(=O)[C@H](CC(=O)O)NC(=O)[C@H](CC(C)C)NC(=O)[C@H](Cc1ccc(O)cc1)NC(=O)[C@H](CCCCN)NC(=O)[C@H](CO)NC(=O)[C@H](Cc1ccc(O)cc1)NC(=O)C[C@H](CCC(=O)O)NC(=O)[C@H](CO)NC(=O)[C@@H](NC(=O)[C@H](Cc1ccccc1)NC(=O)[C@@H](NC(=O)CNC(=O)[C@H](CCC(N)=O)NC(=O)[C@@H](N)CO)[C@@H](C)O)[C@@H](C)O)C(C)C)C(=O)N[C@@H](CC(N)=O)C(=O)N[C@H](C(N)=O)[C@@H](C)O
Active |  |  | CSCC[C@H](NC(=O)[C@H](CC(C)C)NC(=O)[C@H](Cc1c[nH]c2ccccc12)NC(=O)[C@H](CCC(N)=O)NC(=O)[C@@H](NC(=O)[C@H](Cc1ccccc1)NC(=O)[C@H](CC(=O)O)NC(=O)[C@H](CCC(N)=O)NC(=O)[C@H](C)NC(=O)[C@H](CCCNC(=N)N)NC(=O)[C@H](CCCNC(=N)N)NC(=O)[C@H](CO)NC(=O)[C@H](CC(=O)O)NC(=O)[C@H](CC(C)C)NC(=O)[C@H](Cc1ccc(O)cc1)NC(=O)[C@H](CCCCN)NC(=O)[C@H](CO)NC(=O)[C@H](Cc1ccc(O)cc1)NC(=O)CN(CCC(=O)O)C(=O)[C@H](CO)NC(=O)[C@@H](NC(=O)[C@H](Cc1ccccc1)NC(=O)[C@@H](NC(=O)CNC(=O)[C@H](CCC(N)=O)NC(=O)[C@@H](N)CO)[C@@H](C)O)[C@@H](C)O)C(C)C)C(=O)N[C@@H](CC(N)=O)C(=O)N[C@H](C(N)=O)[C@@H](C)O
 | 6.56 |  | H-GTFTSEYSKYLDSRRAQDFVQWLMNT-NH2
 | 6.72 | 7.44 | CSCC[C@H](NC(=O)[C@H](CC(C)C)NC(=O)[C@H](Cc1c[nH]c2ccccc12)NC(=O)[C@H](CCC(N)=O)NC(=O)[C@@H](NC(=O)[C@H](Cc1ccccc1)NC(=O)[C@H](CC(=O)O)NC(=O)[C@H](CCC(N)=O)NC(=O)[C@H](C)NC(=O)[C@H](CCCNC(=N)N)NC(=O)[C@H](CCCNC(=N)N)NC(=O)[C@H](CO)NC(=O)[C@H](CC(=O)O)NC(=O)[C@H](CC(C)C)NC(=O)[C@H](Cc1ccc(O)cc1)NC(=O)[C@H](CCCCN)NC(=O)[C@H](CO)NC(=O)[C@H](Cc1ccc(O)cc1)NC(=O)[C@H](CCC(=O)O)NC(=O)[C@H](CO)NC(=O)[C@@H](NC(=O)[C@@H](N)Cc1ccc(F)c(F)c1)[C@@H](C)O)C(C)C)C(=O)N[C@@H](CC(N)=O)C(=O)N[C@H](C(N)=O)[C@@H](C)O (HELM PEPTIDE1{[N[C@@H](Cc1ccc(F)c(F)c1)C(=O)[*:2]].T.S.E.Y.S.K.Y.L.D.S.R.R.A.Q.D.F.V.Q.W.L.M.N.T.[am]}$$$$V2.0)
Active |  |  | CSCC[C@H](NC(=O)[C@H](CC(C)C)NC(=O)[C@H](Cc1c[nH]c2ccccc12)NC(=O)[C@H](CCC(N)=O)NC(=O)[C@@H](NC(=O)[C@H](Cc1ccccc1)NC(=O)[C@H](CC(=O)O)NC(=O)[C@H](CCC(N)=O)NC(=O)[C@H](C)NC(=O)[C@H](CCCNC(=N)N)NC(=O)[C@H](CCCNC(=N)N)NC(=O)[C@H](CO)NC(=O)[C@H](CC(=O)O)NC(=O)[C@H](CC(C)C)NC(=O)[C@H](Cc1ccc(O)cc1)NC(=O)[C@H](CCCCN)NC(=O)[C@H](CO)NC(=O)[C@H](Cc1ccc(O)cc1)NC(=O)CN(CCCC(=O)O)C(=O)[C@H](CO)NC(=O)[C@@H](NC(=O)[C@H](Cc1ccccc1)NC(=O)[C@@H](NC(=O)CNC(=O)[C@H](CCC(N)=O)NC(=O)[C@@H](N)CO)[C@@H](C)O)[C@@H](C)O)C(C)C)C(=O)N[C@@H](CC(N)=O)C(=O)N[C@H](C(N)=O)[C@@H](C)O
 | 7.32 | 6.94 | CSCC[C@H](NC(=O)[C@H](CC(C)C)NC(=O)[C@H](Cc1c[nH]c2ccccc12)NC(=O)[C@H](CCC(N)=O)NC(=O)[C@@H](NC(=O)[C@H](Cc1ccccc1)NC(=O)[C@H](CC(=O)O)NC(=O)[C@H](CCC(N)=O)NC(=O)[C@H](C)NC(=O)[C@H](CCCNC(=N)N)NC(=O)[C@H](CCCNC(=N)N)NC(=O)[C@H](CO)NC(=O)[C@H](CC(=O)O)NC(=O)[C@H](CC(C)C)NC(=O)[C@H](Cc1ccc(O)cc1)NC(=O)[C@H](CCCCN)NC(=O)[C@H](CO)NC(=O)[C@H](Cc1ccc(O)cc1)NC(=O)[C@H](CCC(=O)O)NC(=O)[C@H](CO)NC(=O)[C@@H](NC(=O)C(C)Cc1ccccc1)[C@@H](C)O)C(C)C)C(=O)N[C@@H](CC(N)=O)C(=O)N[C@H](C(N)=O)[C@@H](C)O (some centres not stated) (HELM PEPTIDE1{[CC(Cc1ccccc1)C(=O)[*:2]].T.S.E.Y.S.K.Y.L.D.S.R.R.A.Q.D.F.V.Q.W.L.M.N.T.[am]}$$$$V2.0)
